Converted amounts (≈) assume the structure as drawn. Where two headings read alike, the source gives them in different places.

Experiment [1] deals with S. marcescens. Nature of the experiment: MIC by broth microdilution. The format is cell-based, Serratia marcescens. Particulars: AAC(3)-I. Here is the method: (§1) MICs of amikacin and gentamicin were determined using the broth microdilution method in cation-adjusted Mueller-Hinton broth, as recommended by the Clinical Laboratory Standard Institute (CLSI) guidelines (8). Amikacin and gentamicin sulfate (Fluorochem, Dertbyshire, UK) were tested over a range of dilutions from 0.25 to 256 μg/ml. A final inoculum of 5.10^5 CFU/ml of each strain was distributed in the 96 wells tray (Sarstedt, Ntimbrecht, Germany). All experiments were repeated in triplicate and E. coli ATCC 25922 was used as quality control. According to the CLSI breakpoints (9), Enterobacteriaceae isolates with gentamicin MICs≤4 and amikacin MICs≤16 mg/L were categorized as susceptible, while those with gentamicin MICs≥16 and amikacin MICs≥64 mg/L were categorized as resistant.
(§2) MICs of amikacin and gentamicin were determined as described above in Example 1.
On the technique in general: In broth dilution the organism is exposed to a series of concentrations in liquid medium.

The subject of experiment [2] is P. mirabilis. Nature of the experiment: MIC by broth microdilution. It is filed as cell-based, Proteus mirabilis. Here is the method: as §1, §2
[3] abbreviates: isolate R2260, P. mirabilis, AG susceptible.

Usually MIC stands for the least concentration at which growth counts as inhibited. As to `NCC[C@H](O)C(=O)N[C@@H]1C[C@H](N)[C@@H](O[C@H]2O[C@H](CN)[C@@H](O)[C@H](O)[C@H]2O)[C@H](O)[C@H]1O[C@H]1O[C@H](CO)[C@@H](O)[C@H](N)[C@H]1O` [Amikacin], the MIC in experiment [1] (Serratia marcescens, isolate 4290, S. marcescens, read-out: MIC) was 4 µg/mL (≈ 6.83 µM); in experiment [1] (strain 4290, S. marcescens), 4 µg/mL (≈ 6.83 µM); in experiment [2] (Proteus mirabilis, isolate R2260, P. mirabilis, AG susceptible, read-out: MIC) it was 4 µg/mL (≈ 6.83 µM); in experiment [2] (Proteus mirabilis, strain R263, P. mirabilis, armA, read-out: MIC) it was > 512 µg/mL; in experiment [2] (Proteus mirabilis, strain R2260, P. mirabilis, susceptible, read-out: MIC) it was 4 µg/mL (≈ 6.83 µM). Besides, the “Amikacin Phenotype” value in experiment [1] (isolate 4290, S. marcescens) was “S (amikacin MICs≤16 mg/L were categorized as susceptible)”; in experiment [2] (setting [3]), “S (amikacin MICs≤16 mg/L were categorized as susceptible)”.
Regarding Gentamicin, the “Gentamicin Phenotype” value was “R (gentamicin MICs≥16)” in experiment [1] (isolate 4290, S. marcescens) and “S (gentamicin MICs≤4)” in experiment [2] (setting [3]). Moreover, the MIC in experiment [1] (isolate 4290, S. marcescens) was 64 µg/mL; in experiment [1] (strain 4290, S. marcescens), 64 µg/mL; in experiment [2] (setting [3]) it was 4 µg/mL; in experiment [2] (strain R263, P. mirabilis, armA) it was >256 µg/mL; in experiment [2] (strain R2260, P. mirabilis, susceptible) it was 4 µg/mL.

Values taken from US20190249218A1, “Method, Medium and Kit for Detecting Multiple Aminoglycoside Resistance Including 16S rRNA Methylase Mediated Resistance in Gram-Negative Bacteria” (priority 2016, published 2019).
